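Test compounds were applied to cells in 96-well plates for 48 hours at 5 doses. The concentration for 50% growth inhibition is given as GI50.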 The source made the active and inactive calls. Rule as the data show it: active = GI50 up to about 1.1 µM and inactive = higher.
How the values were obtained:
Test in all cases: growth of human tumour cells (NCI), 48 h
ACHN = test system: ACHN
DU-145 = test system: DU-145
M14 = test system: M14
MCF7 = test system: MCF7
MDA-MB-231 = test system: MDA-MB-231
MDA-MB-435 = test system: MDA-MB-435
MDA-N = test system: MDA-N
NCI/ADR-RES = test system: NCI/ADR-RES
TK-10 = test system: TK-10
U-251 = test system: U-251
KM-20L2 = test system: KM-20L2
LXFL 529 = test system: LXFL 529
M19-MEL = test system: M19-MEL
NCI-H23 = test system: NCI-H23
RXF 393 = test system: RXF 393
SNB-75 = test system: SNB-75
DLD-1 = test system: DLD-1
DMS-273 = test system: DMS-273
HOP-18 = test system: HOP-18
SNB-78 = test system: SNB-78

Row | Structure (SMILES) | GI50 (ACHN) | GI50 (DU-145) | GI50 (M14) | GI50 (MCF7) | GI50 (MDA-MB-231) | GI50 (MDA-MB-435) | GI50 (MDA-N) | GI50 (NCI/ADR-RES) | GI50 (TK-10) | GI50 (U-251) | GI50 (KM-20L2) | GI50 (LXFL 529) | GI50 (M19-MEL) | GI50 (NCI-H23) | GI50 (RXF 393) | GI50 (SNB-75) | GI50 (DLD-1) | GI50 (DMS-273) | GI50 (HOP-18) | GI50 (SNB-78)
1 | Nc1ccc(OCC(O)N2C(=O)c3ccccc3C2=O)cc1 (stereo not given) | > 100 µM (inactive) | > 100 µM (inactive) | > 100 µM (inactive) | > 100 µM (inactive) | > 100 µM (inactive) | > 100 µM (inactive) | > 100 µM (inactive) | > 100 µM (inactive) | > 100 µM (inactive) | > 100 µM (inactive) |  |  |  |  |  |  |  |  |  | 
2 | COC(=O)C1=C(C)N2CCCOC2(C)C(C(=O)OC)C1c1cccc(Cl)c1 (stereo not given) | 28.2 µM (inactive) |  | 20 µM (inactive) |  |  |  |  |  | 53 µM (inactive) |  | 24.4 µM (inactive) | 20 µM (inactive) | 20.6 µM (inactive) | 31.8 µM (inactive) | 33.1 µM (inactive) | 0.452 µM (active) |  |  |  | 
3 | CCCCC#CS(=O)(=O)C(F)(F)F |  |  |  | 52.6 µM (inactive) |  |  |  | 47.3 µM (inactive) |  | 76.6 µM (inactive) | 81.5 µM (inactive) |  |  | 58.6 µM (inactive) | 20.4 µM (inactive) | 36.6 µM (inactive) | > 100 µM (inactive) | 48 µM (inactive) | > 100 µM (inactive) | > 100 µM (inactive)

Reference: ChEMBL document CHEMBL1201862, “PubChem BioAssay data set” (2004)
